These compounds were tested against native CB1 receptors (Rattus norvegicus, UniProt P20272) (assay: CB1 receptor rat binding assay ([3H]SR141716A, rat brain membranes)). Conditions: not given.
Chain of native CB1 receptors (P20272 whole entry): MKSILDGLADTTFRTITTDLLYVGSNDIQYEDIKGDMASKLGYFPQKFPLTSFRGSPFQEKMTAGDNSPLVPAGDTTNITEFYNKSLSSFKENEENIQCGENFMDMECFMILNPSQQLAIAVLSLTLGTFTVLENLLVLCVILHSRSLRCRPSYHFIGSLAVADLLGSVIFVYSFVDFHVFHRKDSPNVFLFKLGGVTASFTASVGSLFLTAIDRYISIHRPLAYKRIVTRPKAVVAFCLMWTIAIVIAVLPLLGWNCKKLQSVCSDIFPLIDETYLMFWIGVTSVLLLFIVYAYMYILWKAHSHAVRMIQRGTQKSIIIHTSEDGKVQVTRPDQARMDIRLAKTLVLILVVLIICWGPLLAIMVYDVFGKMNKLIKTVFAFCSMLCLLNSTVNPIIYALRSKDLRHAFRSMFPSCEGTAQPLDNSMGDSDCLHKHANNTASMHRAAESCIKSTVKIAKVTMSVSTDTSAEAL

Row | SMILES | Ki [nM]
1 | O=C(NN1CCCCC1)c1ccc2c(c1)N=C(C1CCCCC1)c1ccccc1O2 | 63.1

Same assay, conditions: rat brain membranes, [3H]SR141716A

Row | SMILES | Binding rat Inh % [%]
2 | O=C(NCc1cccnc1)c1ccc2c(c1)N=C(c1ccc(Br)cc1)c1ccccc1S2 [drawing 1180] | 72
3 | CCCNC(=O)c1ccc2c(c1)N=C(c1cccc(F)c1)c1ccccc1S2 [drawing 1286] | 84
4 | COc1ccc(C2=Nc3cc(C(=O)NCc4ccncc4)ccc3Sc3ccccc32)cc1 [drawing 1412] | 67
5 | CC(C)CNC(=O)c1ccc2c(c1)N=C(c1ccccc1F)c1ccccc1S2 [drawing 1307] | 90
6 | CC(C)CCNC(=O)c1ccc2c(c1)N=C(c1ccccc1Cl)c1ccccc1S2 [drawing 1188] | 116
7 | O=C(NCc1ccccn1)c1ccc2c(c1)N=C(c1ccc(Cl)cc1)c1ccccc1S2 [drawing 1270] | 112
8 | Cc1cccc(C2=Nc3cc(C(=O)NCc4ccc(C)o4)ccc3Sc3ccccc32)n1 [drawing 1353] | 108
9 | O=C(NCCC(F)(F)F)c1ccc2c(c1)N=C(c1ccsc1)c1ccccc1S2 [drawing 1442] | 88
10 | CCCCNS(=O)(=O)c1ccc2c(c1)N=C(c1ccc(Cl)cc1)c1ccccc1S2 [drawing 1405] | 92
11 | O=C(NCc1ccco1)c1ccc2c(c1)N=C(c1cccc(F)c1)c1ccccc1S2 [drawing 1252] | 93
12 | CCCCNC(=O)c1ccc2c(c1)N=C(c1ccc(Cl)cn1)c1ccc(F)cc1S2 [drawing 1317] | 86
13 | O=C(NCc1cccs1)c1ccc2c(c1)N=C(c1ccccc1F)c1ccccc1S2 [drawing 1227] | 94
14 | Cc1ccsc1C1=Nc2cc(C(=O)NCCC(C)C)ccc2Sc2ccccc21 [drawing 1251] | 88
15 | Cc1cccc(C2=Nc3cc(C(=O)NCCC(F)(F)F)ccc3Sc3ccccc32)n1 [drawing 1308] | 91
16 | Cc1ccc(CNC(=O)c2ccc3c(c2)N=C(c2cccc(Cl)c2)c2ccccc2S3)o1 [drawing 1231] | 85
17 | CCCCNC(=O)c1ccc2c(c1)N=C(c1ccc(Cl)cn1)c1cc(F)ccc1S2 [drawing 1230] | 83
18 | O=C(NN1CCCCCC1)c1ccc2c(c1)N=C(c1ccc(Cl)cc1F)c1ccccc1S2 [drawing 1386] | 84
19 | CCOCCNC(=O)c1ccc2c(c1)N=C(c1cccc(Br)c1)c1ccccc1S2 [drawing 1323] | 76
20 | O=C(NCc1cccnc1)c1ccc2c(c1)N=C(c1ccc(Cl)c(Cl)c1)c1ccccc1S2 [drawing 1401] | 102
21 | O=C(NCCC(F)(F)F)c1ccc2c(c1)N=C(c1ccc(F)cc1)c1ccccc1S2 [drawing 1418] | 105
22 | O=C(NCc1ccncc1)c1ccc2c(c1)N=C(c1ccc(Br)cc1)c1ccccc1S2 [drawing 1453] | 80

The remaining lines, values ahead:

Row | Binding rat Inh % [%] | SMILES
23 | 79 | O=C(NCc1ccccn1)c1ccc2c(c1)N=C(c1cccc(Br)c1)c1ccccc1S2 [drawing 1419]
24 | 83 | CN1c2ccc(C(=O)NCc3ccc(F)cc3)cc2N=C(c2ccc(F)cc2)c2ccccc21 [drawing 1496]
25 | 91 | O=C(NC1CCCC1)c1ccc2c(c1)N=C(c1ccc(Cl)s1)c1ccccc1S2 [drawing 1542]
26 | 82 | CCCCNC(=O)c1ccc2c(c1)N=C(c1ccc(OC)cc1)c1ccccc1S2 [drawing 1532]
27 | 76 | Cc1ccsc1C1=Nc2cc(C(=O)NN3CCCCCC3)ccc2Sc2ccccc21 [drawing 1507]
28 | 96 | Cc1cccc(C2=Nc3cc(C(=O)NCC(C)C)ccc3Sc3ccccc32)n1 [drawing 1472]
29 | 72 | O=C(Cc1ccccc1)NNC(=O)c1ccc2c(c1)N=C(c1ccc(Cl)cc1)c1ccccc1S2 [drawing 1451]
30 | 90 | CCCCNC(=O)c1ccc2c(c1)N=C(c1ccc(Cl)s1)c1ccc(Cl)cc1S2 [drawing 1480]
31 | 97 | O=C(NCc1cccnc1)c1ccc2c(c1)N=C(c1ccc(F)cc1)c1ccccc1S2 [drawing 1541]
32 | 84 | O=C(NC1CCCC1)c1ccc2c(c1)N=C(c1cccc(Cl)c1)c1ccccc1S2 [drawing 1547]
33 | 76 | O=C(NCCc1ccccn1)c1ccc2c(c1)N=C(c1cccc(Cl)c1)c1ccccc1S2 [drawing 1475]
34 | 64 | CCOCCNC(=O)c1ccc2c(c1)N=C(c1ccc(C#N)cc1)c1ccccc1S2 [drawing 1543]

Same assay, conditions: rat brain membranes, [3H]SR141716A; read-out: Binding rat pKi (converted)

Row | SMILES | Ki [nM]
35 | O=C(NCc1cccnc1)c1ccc2c(c1)N=C(c1ccc(Br)cc1)c1ccccc1S2 [drawing 1180] | 12.6
36 | CCCC1=Nc2cc(C(=O)NCCCc3ccccc3)ccc2Sc2ccccc21 [drawing 1357] | 31.6
37 | CCCNC(=O)c1ccc2c(c1)N=C(c1cccc(F)c1)c1ccccc1S2 [drawing 1286] | 20
38 | COc1ccc(C2=Nc3cc(C(=O)NCc4ccncc4)ccc3Sc3ccccc32)cc1 [drawing 1412] | 39.8
39 | CC(C)CNC(=O)c1ccc2c(c1)N=C(c1ccccc1F)c1ccccc1S2 [drawing 1307] | 20
40 | CC(C)CCNC(=O)c1ccc2c(c1)N=C(c1ccccc1Cl)c1ccccc1S2 [drawing 1188] | 12.6
41 | O=C(NCc1ccc(F)cc1)c1ccc2c(c1)N=C(c1ccccc1)c1ccccc1S2 [drawing 1352] | 3.98
42 | O=C(NCc1ccccc1Br)c1ccc2c(c1)N=C(C1CCCCC1)c1ccccc1S2 [drawing 1392] | 5.01
43 | O=C(NCc1ccccn1)c1ccc2c(c1)N=C(c1ccc(Cl)cc1)c1ccccc1S2 [drawing 1270] | 20
44 | Cc1cccc(C2=Nc3cc(C(=O)NCc4ccc(C)o4)ccc3Sc3ccccc32)n1 [drawing 1353] | 3.98
45 | O=C(NCCC(F)(F)F)c1ccc2c(c1)N=C(c1ccsc1)c1ccccc1S2 [drawing 1442] | 7.94
46 | O=C(NCc1ccc(F)cc1)c1ccc2c(c1)N=C(C1CCCCC1)c1ccccc1S2 [drawing 1336] | 3.98
47 | CCCCNS(=O)(=O)c1ccc2c(c1)N=C(c1ccc(Cl)cc1)c1ccccc1S2 [drawing 1405] | 39.8
48 | CCC1=Nc2cc(C(=O)NCCc3ccc(OC)c(OC)c3)ccc2Sc2ccccc21 | 63.1
49 | O=C(NCc1ccco1)c1ccc2c(c1)N=C(c1cccc(F)c1)c1ccccc1S2 [drawing 1252] | 15.8
50 | O=C(NCc1cccc(Cl)c1)c1ccc2c(c1)N=C(N1CCCCC1)c1ccccc1[S+]2[O-] (stereo not drawn) [drawing 1315] | 25.1
51 | CCCCNC(=O)c1ccc2c(c1)N=C(c1ccc(Cl)cn1)c1ccc(F)cc1S2 [drawing 1317] | 25.1

Row | SMILES | Ki [nM]
52 | O=C(NCc1ccccc1Cl)c1ccc2c(c1)N=C(c1ccccc1)c1ccccc1S2 [drawing 1324] | 25.1
53 | O=C(NCc1cccs1)c1ccc2c(c1)N=C(c1ccccc1F)c1ccccc1S2 [drawing 1227] | 15.8
54 | O=C(NCCCc1ccccc1)c1ccc2c(c1)N=C(c1ccccc1F)c1ccccc1S2 [drawing 1206] | 12.6
55 | Cc1ccsc1C1=Nc2cc(C(=O)NCCC(C)C)ccc2Sc2ccccc21 [drawing 1251] | 15.8
56 | Cc1cccc(C2=Nc3cc(C(=O)NCCC(F)(F)F)ccc3Sc3ccccc32)n1 [drawing 1308] | 20
57 | Cc1ccc(CNC(=O)c2ccc3c(c2)N=C(c2cccc(Cl)c2)c2ccccc2S3)o1 [drawing 1231] | 0.631
58 | CCCCNC(=O)c1ccc2c(c1)N=C(c1ccc(Cl)cn1)c1cc(F)ccc1S2 [drawing 1230] | 15.8
59 | O=C(NN1CCCCCC1)c1ccc2c(c1)N=C(c1ccc(Cl)cc1F)c1ccccc1S2 [drawing 1386] | 5.01
60 | CCOCCNC(=O)c1ccc2c(c1)N=C(c1cccc(Br)c1)c1ccccc1S2 [drawing 1323] | 25.1
61 | O=C(NCc1cccc(Cl)c1)c1ccc2c(c1)N=C(N1CCCCC1)c1cc(F)ccc1S2 [drawing 1181] | 12.6
62 | O=C(NCc1cccnc1)c1ccc2c(c1)N=C(c1ccc(Cl)c(Cl)c1)c1ccccc1S2 [drawing 1401] | 6.31
63 | O=C(NCCC(F)(F)F)c1ccc2c(c1)N=C(c1ccc(F)cc1)c1ccccc1S2 [drawing 1418] | 6.31
64 | O=C(NCCc1cccc(Cl)c1)c1ccc2c(c1)N=C(c1ccc(F)cc1)c1ccccc1S2 [drawing 1179] | 12.6
65 | O=C(NCc1ccccc1)c1ccc2c(c1)N=C(c1ccc(F)cc1)c1ccccc1S2 [drawing 1409] | 6.31
66 | O=C(NCc1cccc(Cl)c1)c1ccc2c(c1)N=C(c1ccc(F)cc1)c1ccccc1S2 [drawing 1266] | 1.58
67 | O=C(NCc1ccncc1)c1ccc2c(c1)N=C(c1ccc(Br)cc1)c1ccccc1S2 [drawing 1453] | 50.1

The remaining lines, values ahead:

Row | Ki [nM] | SMILES
68 | 10 | CCOC(=O)N1CCC(NC(=O)c2ccc3c(c2)N=C(C2CCCCC2)c2ccccc2S3)CC1 [drawing 1517]
69 | 39.8 | O=C(NCc1ccccn1)c1ccc2c(c1)N=C(c1cccc(Br)c1)c1ccccc1S2 [drawing 1419]
70 | 63.1 | CN1c2ccc(C(=O)NCc3ccc(F)cc3)cc2N=C(c2ccc(F)cc2)c2ccccc21 [drawing 1496]
71 | 100 | CCCC1=Nc2cc(C(=O)NCCc3cc(OC)ccc3OC)ccc2Sc2ccccc21 [drawing 1549]
72 | 12.6 | O=C(NC1CCCC1)c1ccc2c(c1)N=C(c1ccc(Cl)s1)c1ccccc1S2 [drawing 1542]
73 | 10 | CCCCNC(=O)c1ccc2c(c1)N=C(c1ccc(OC)cc1)c1ccccc1S2 [drawing 1532]
74 | 10 | Cc1ccsc1C1=Nc2cc(C(=O)NN3CCCCCC3)ccc2Sc2ccccc21 [drawing 1507]
75 | 7.94 | Cc1cccc(C2=Nc3cc(C(=O)NCC(C)C)ccc3Sc3ccccc32)n1 [drawing 1472]
76 | 50.1 | O=C(Cc1ccccc1)NNC(=O)c1ccc2c(c1)N=C(c1ccc(Cl)cc1)c1ccccc1S2 [drawing 1451]
77 | 10 | CCCCNC(=O)c1ccc2c(c1)N=C(c1ccc(Cl)s1)c1ccc(Cl)cc1S2 [drawing 1480]
78 | 50.1 | O=C(NN1CCCCC1)c1ccc2c(c1)N=C(c1ccccc1)c1ccccc1S2 [drawing 1462]
79 | 12.6 | O=C(NCc1cccnc1)c1ccc2c(c1)N=C(c1ccc(F)cc1)c1ccccc1S2 [drawing 1541]
80 | 7.94 | O=C(NCc1cccc(Cl)c1)c1ccc2c(c1)N=C(c1ccccc1)c1ccccc1S2 [drawing 1449]
81 | 12.6 | O=C(NC1CCCC1)c1ccc2c(c1)N=C(c1cccc(Cl)c1)c1ccccc1S2 [drawing 1547]
82 | 63.1 | O=C(NCCc1ccccn1)c1ccc2c(c1)N=C(c1cccc(Cl)c1)c1ccccc1S2 [drawing 1475]
83 | 7.94 | CC(CNC(=O)c1ccc2c(c1)N=C(N1CCCCC1)c1ccccc1S2)c1ccccc1 (stereo not drawn) [drawing 1455]
84 | 100 | CCOCCNC(=O)c1ccc2c(c1)N=C(c1ccc(C#N)cc1)c1ccccc1S2 [drawing 1543]
